Measurements: the NIST ThermoML archive (doi:10.1021/je800203s)

Experiments:
[1] = Crystal
[2] = Molar enthalpy of transition or fusion; conditions: Crystal
[3] = molar heat capacity at constant pressure; conditions: 101.33 kPa

COc1ccc(CC#N)cc1OC [(3,4-dimethoxyphenyl)acetonitrile]
Conditions	Molar enthalpy of transition or fusion [kcal/mol]	Triple point temperature [K]
[1]	–	337.08
[2]	5.91	–

[3]
Conditions	molar heat capacity at constant pressure [J/K/mol]
78.32 K, Crystal	80.52
80 K, Crystal	82.15
81.06 K, Crystal	82.37
84.38 K, Crystal	84.71
85 K, Crystal	85.39
87.3 K, Crystal	87.42
90 K, Crystal	88.81
90.17 K, Crystal	89.84
93.05 K, Crystal	91.31
95 K, Crystal	92.41
95.92 K, Crystal	93.07
98.78 K, Crystal	94.96
100 K, Crystal	96.15
102.8 K, Crystal	97.78
105 K, Crystal	100
106.79 K, Crystal	101.8
109.62 K, Crystal	103.7
110 K, Crystal	104
112.5 K, Crystal	106.5
115 K, Crystal	108
115.38 K, Crystal	108.6
118.25 K, Crystal	111
120 K, Crystal	112.1
121.12 K, Crystal	113.3
123.99 K, Crystal	115.6
125 K, Crystal	116.3
126.87 K, Crystal	118
129.71 K, Crystal	120.3
130 K, Crystal	120.4
132.55 K, Crystal	122.1
135 K, Crystal	124.6
135.4 K, Crystal	124.9
138.26 K, Crystal	127.8
140 K, Crystal	128.8
141.12 K, Crystal	129.7
143.94 K, Crystal	131.8
145 K, Crystal	133
146.78 K, Crystal	134.2
149.62 K, Crystal	136.7
150 K, Crystal	137.1
153.27 K, Crystal	139.5
155 K, Crystal	141.2
156.88 K, Crystal	142.9
159.69 K, Crystal	144.6
160 K, Crystal	145.3
162.54 K, Crystal	146.5
165 K, Crystal	149.3
165.37 K, Crystal	148.6
168.16 K, Crystal	151.4
170 K, Crystal	153.3
170.93 K, Crystal	153.9
173.78 K, Crystal	156.3
175 K, Crystal	157.2
176.63 K, Crystal	157.8
179.46 K, Crystal	159.5
180 K, Crystal	161
182.27 K, Crystal	162.3
185 K, Crystal	164.7
185.06 K, Crystal	164.3
187.83 K, Crystal	167.4
190 K, Crystal	168.4
190.65 K, Crystal	168.8
195 K, Crystal	172
196.37 K, Crystal	174.3
199.23 K, Crystal	175.5
200 K, Crystal	175.6
202.71 K, Crystal	177.3
205 K, Crystal	179
206.12 K, Crystal	180.1
208.91 K, Crystal	182.6
210 K, Crystal	182.5
211.79 K, Crystal	184.7
214.67 K, Crystal	185.5
215 K, Crystal	185.8
217.53 K, Crystal	187.8
220 K, Crystal	189.1
220.39 K, Crystal	189.8
223.24 K, Crystal	192.6
225 K, Crystal	192.4
226.07 K, Crystal	194.1
228.97 K, Crystal	196
230 K, Crystal	195.6
231.92 K, Crystal	198.1
234.86 K, Crystal	200.2
235 K, Crystal	198.8
237.82 K, Crystal	201.4
240 K, Crystal	202
240.78 K, Crystal	203
244.26 K, Crystal	204.7
245 K, Crystal	205.2
247.72 K, Crystal	206
250 K, Crystal	208.4
250.62 K, Crystal	206.7
253.5 K, Crystal	208.8
255 K, Crystal	211.6
256.38 K, Crystal	210.7
259.24 K, Crystal	213.1
260 K, Crystal	214.9
262.1 K, Crystal	214.8
264.94 K, Crystal	216.4
265 K, Crystal	218.2
267.89 K, Crystal	218.3
270 K, Crystal	221.6
270.93 K, Crystal	221.1
273.96 K, Crystal	223.6
275 K, Crystal	225.2
276.98 K, Crystal	226.3
279.99 K, Crystal	228.9
280 K, Crystal	228.8
283 K, Crystal	231.4
285 K, Crystal	232.6
285.98 K, Crystal	234.1
288.95 K, Crystal	236.8
290 K, Crystal	236.6
291.89 K, Crystal	239.8
294.78 K, Crystal	242.2
295 K, Crystal	240.8
297.68 K, Crystal	245.2
298.15 K, Crystal	243.5
300 K, Crystal	245.2
300.71 K, Crystal	247.1
303.68 K, Crystal	250.1
305 K, Crystal	249.8
306.62 K, Crystal	252.2
309.56 K, Crystal	254.2
310 K, Crystal	254.8
312.48 K, Crystal	256
315 K, Crystal	260
315.49 K, Crystal	259.8
318.59 K, Crystal	261.9
320 K, Crystal	265.6
321.66 K, Crystal	267
324.72 K, Crystal	275
327.73 K, Crystal	284.8
330.67 K, Crystal	313
340 K, Liquid	350.5
342.04 K, Liquid	352
345 K, Liquid	353.2
345.02 K, Liquid	352.7
348.08 K, Liquid	354.6
350 K, Liquid	356
351.14 K, Liquid	356.8
354.19 K, Liquid	358.7
355 K, Liquid	358.7
357.24 K, Liquid	360.1
360 K, Liquid	361.4
360.28 K, Liquid	361.3
363.32 K, Liquid	362.6
365 K, Liquid	363.9
366.35 K, Liquid	364.4
369.38 K, Liquid	366.3
370 K, Liquid	366.3
372.4 K, Liquid	367.9
375 K, Liquid	368.7
375.42 K, Liquid	368.7
378.43 K, Liquid	370.1
380 K, Liquid	371
381.44 K, Liquid	371.6
384.44 K, Liquid	373
385 K, Liquid	373.3
387.44 K, Liquid	374.5
390 K, Liquid	375.7
390.43 K, Liquid	376.1
393.41 K, Liquid	377.4
395 K, Liquid	378.4
396.39 K, Liquid	379.4
399.38 K, Liquid	380.9
400 K, Liquid	381.5
